Experimental data as given in patent US10301308B2, “Azetidine derivatives for tau imaging” (Eli Lilly and Company, priority 2015, dated 2019).

Assay: Biodistribution in normal mice (dissection, gamma counting)
Assay type: in vivo
Settings: for % dose/g Blood / % dose/g Body leftover / % dose/g Bone / % dose/g Brain / % dose/g Fat / % dose/g Heart / % dose/g Intestine / % dose/g Kidney / % dose/g Liver / % dose/g Lung / % dose/g Muscle / % dose/g Pancreas / % dose/g Skin / % dose/g Spleen / % dose/g Stomach / % dose/g Tail / % dose/g Testes / % dose/g Thyroid / % dose/g Urogenital / % dose/organ Blood / % dose/organ Body leftover / % dose/organ Bone / % dose/organ Brain / % dose/organ Fat / % dose/organ Heart / % dose/organ Intestine / % dose/organ Kidney / % dose/organ Liver / % dose/organ Lung / % dose/organ Muscle / % dose/organ Pancreas / % dose/organ Skin / % dose/organ Spleen / % dose/organ Stomach / % dose/organ Tail / % dose/organ Testes / % dose/organ Thyroid / % dose/organ Urogenital: AVG
Experimental: While under anesthesia, 0.2 mL of saline solution containing 20 μCi of 3-(3-[18F]-fluoroazetidin-1-yl)-8-methylbenzo[4,5]imidazo[1,2-a]pyridine is injected directly into the tail vein. Three mice are used per time point and sacrificed in a staggered manner. The following organs and fluids are collected: Blood, Spleen, Thyroid, Testes, Heart, Liver, Pancreas, Kidneys, Muscle, Skin, Stomach, Bone, Lungs, Brain, Intestines, Urogenital system. The organs are weighted and the radioactivity of each organ is counted in an Automatic Gamma Counter (Perkin Elmer). For the skin, bone, muscle and blood, a sample is counted and the total weight of the organ or fluid is estimated. A sample of the injected dose is counted as reference. The Percentage Injected Dose per Gram of tissue (% ID/g) is calculated for each organ.

- % dose/g Blood (2 minutes): 2.52 % dose/g
- % dose/g Body leftover (2 minutes): 2.43 % dose/g
- % dose/g Bone (2 minutes): 1.89 % dose/g
- % dose/g Brain (2 minutes): 9.53 % dose/g
- % dose/g Fat (2 minutes): 1.09 % dose/g
- % dose/g Heart (2 minutes): 4.79 % dose/g
- % dose/g Intestine (2 minutes): 5.77 % dose/g
- % dose/g Kidney (2 minutes): 39.08 % dose/g
- % dose/g Liver (2 minutes): 7.32 % dose/g
- % dose/g Lung (2 minutes): 26.50 % dose/g
- % dose/g Muscle (2 minutes): 1.81 % dose/g
- % dose/g Pancreas (2 minutes): 8.74 % dose/g
- % dose/g Skin (2 minutes): 0.96 % dose/g
- % dose/g Spleen (2 minutes): 10.89 % dose/g
- % dose/g Stomach (2 minutes): 4.14 % dose/g
- % dose/g Tail (2 minutes): 14.93 % dose/g
- % dose/g Testes (2 minutes): 1.78 % dose/g
- % dose/g Thyroid (2 minutes): 6.01 % dose/g
- % dose/g Urogenital (2 minutes): 4.33 % dose/g
- % dose/organ Blood (2 minutes): 4.54 % dose/organ
- % dose/organ Body leftover (2 minutes): 38.48 % dose/organ
- % dose/organ Bone (2 minutes): 6.87 % dose/organ
- % dose/organ Brain (2 minutes): 4.42 % dose/organ
- % dose/organ Fat (2 minutes): 0.27 % dose/organ
- % dose/organ Heart (2 minutes): 0.72 % dose/organ
- % dose/organ Intestine (2 minutes): 15.39 % dose/organ
- % dose/organ Kidney (2 minutes): 15.93 % dose/organ
- % dose/organ Liver (2 minutes): 11.56 % dose/organ
- % dose/organ Lung (2 minutes): 5.18 % dose/organ
- % dose/organ Muscle (2 minutes): 19.01 % dose/organ
- % dose/organ Pancreas (2 minutes): 1.31 % dose/organ
- % dose/organ Skin (2 minutes): 3.74 % dose/organ
- % dose/organ Spleen (2 minutes): 1.00 % dose/organ
- % dose/organ Stomach (2 minutes): 1.52 % dose/organ
- % dose/organ Tail (2 minutes): 10.85 % dose/organ
- % dose/organ Testes (2 minutes): 0.30 % dose/organ
- % dose/organ Thyroid (2 minutes): 0.10 % dose/organ
- % dose/organ Urogenital (2 minutes): 0.75 % dose/organ
- % dose/g Blood (30 minutes): 1.14 % dose/g
- % dose/g Body leftover (30 minutes): 0.71 % dose/g
- % dose/g Bone (30 minutes): 0.93 % dose/g
- % dose/g Brain (30 minutes): 0.39 % dose/g
- % dose/g Fat (30 minutes): 0.63 % dose/g
- % dose/g Heart (30 minutes): 0.76 % dose/g
- % dose/g Intestine (30 minutes): 10.09 % dose/g
- % dose/g Kidney (30 minutes): 5.98 % dose/g
- % dose/g Liver (30 minutes): 2.76 % dose/g
- % dose/g Lung (30 minutes): 5.11 % dose/g
- % dose/g Muscle (30 minutes): 0.46 % dose/g
- % dose/g Pancreas (30 minutes): 1.15 % dose/g
- % dose/g Skin (30 minutes): 0.55 % dose/g
- % dose/g Spleen (30 minutes): 1.98 % dose/g
- % dose/g Stomach (30 minutes): 3.10 % dose/g
- % dose/g Tail (30 minutes): 2.77 % dose/g
- % dose/g Testes (30 minutes): 1.56 % dose/g
- % dose/g Thyroid (30 minutes): 0.81 % dose/g
- % dose/g Urogenital (30 minutes): 22.15 % dose/g
- % dose/organ Blood (30 minutes): 2.03 % dose/organ
- % dose/organ Body leftover (30 minutes): 10.62 % dose/organ
- % dose/organ Bone (30 minutes): 3.31 % dose/organ
- % dose/organ Brain (30 minutes): 0.17 % dose/organ
- % dose/organ Fat (30 minutes): 0.21 % dose/organ
- % dose/organ Heart (30 minutes): 0.11 % dose/organ
- % dose/organ Intestine (30 minutes): 28.28 % dose/organ
- % dose/organ Kidney (30 minutes): 2.56 % dose/organ
- % dose/organ Liver (30 minutes): 4.22 % dose/organ
- % dose/organ Lung (30 minutes): 0.99 % dose/organ
- % dose/organ Muscle (30 minutes): 4.68 % dose/organ
- % dose/organ Pancreas (30 minutes): 0.15 % dose/organ
- % dose/organ Skin (30 minutes): 2.10 % dose/organ
- % dose/organ Spleen (30 minutes): 0.19 % dose/organ
- % dose/organ Stomach (30 minutes): 1.80 % dose/organ
- % dose/organ Tail (30 minutes): 1.93 % dose/organ
- % dose/organ Testes (30 minutes): 0.23 % dose/organ
- % dose/organ Thyroid (30 minutes): 0.01 % dose/organ
- % dose/organ Urogenital (30 minutes): 3.92 % dose/organ
- % dose/g Blood (60 minutes): 0.87 % dose/g
- % dose/g Body leftover (60 minutes): 0.54 % dose/g
- % dose/g Bone (60 minutes): 0.97 % dose/g
- % dose/g Brain (60 minutes): 0.26 % dose/g
- % dose/g Fat (60 minutes): 0.27 % dose/g
- % dose/g Heart (60 minutes): 0.49 % dose/g
- % dose/g Intestine (60 minutes): 15.40 % dose/g
- % dose/g Kidney (60 minutes): 4.32 % dose/g
- % dose/g Liver (60 minutes): 3.10 % dose/g
- % dose/g Lung (60 minutes): 4.01 % dose/g
- % dose/g Muscle (60 minutes): 0.31 % dose/g
- % dose/g Pancreas (60 minutes): 0.60 % dose/g
- % dose/g Skin (60 minutes): 0.36 % dose/g
- % dose/g Spleen (60 minutes): 1.15 % dose/g
- % dose/g Stomach (60 minutes): 2.78 % dose/g
- % dose/g Tail (60 minutes): 2.10 % dose/g
- % dose/g Testes (60 minutes): 0.88 % dose/g
- % dose/g Thyroid (60 minutes): 0.68 % dose/g
- % dose/g Urogenital (60 minutes): 13.95 % dose/g
- % dose/organ Blood (60 minutes): 1.63 % dose/organ
- % dose/organ Body leftover (60 minutes): 8.64 % dose/organ
- % dose/organ Bone (60 minutes): 3.62 % dose/organ
- % dose/organ Brain (60 minutes): 0.09 % dose/organ
- % dose/organ Fat (60 minutes): 0.12 % dose/organ
- % dose/organ Heart (60 minutes): 0.08 % dose/organ
- % dose/organ Intestine (60 minutes): 32.10 % dose/organ
- % dose/organ Kidney (60 minutes): 1.73 % dose/organ
- % dose/organ Liver (60 minutes): 4.73 % dose/organ
- % dose/organ Lung (60 minutes): 0.74 % dose/organ
- % dose/organ Muscle (60 minutes): 3.30 % dose/organ
- % dose/organ Pancreas (60 minutes): 0.13 % dose/organ
- % dose/organ Skin (60 minutes): 1.44 % dose/organ
- % dose/organ Spleen (60 minutes): 0.12 % dose/organ
- % dose/organ Stomach (60 minutes): 3.25 % dose/organ
- % dose/organ Tail (60 minutes): 1.35 % dose/organ
- % dose/organ Testes (60 minutes): 0.20 % dose/organ
- % dose/organ Thyroid (60 minutes): 0.11 % dose/organ
- % dose/organ Urogenital (60 minutes): 3.23 % dose/organ
- % dose/g Blood (120 minutes): 0.50 % dose/g
- % dose/g Body leftover (120 minutes): 0.29 % dose/g
- % dose/g Bone (120 minutes): 0.72 % dose/g
- % dose/g Brain (120 minutes): 0.23 % dose/g
- % dose/g Fat (120 minutes): 0.11 % dose/g
- % dose/g Heart (120 minutes): 0.27 % dose/g
- % dose/g Intestine (120 minutes): 11.88 % dose/g
- % dose/g Kidney (120 minutes): 1.19 % dose/g
- % dose/g Liver (120 minutes): 1.35 % dose/g
- % dose/g Lung (120 minutes): 2.02 % dose/g
- % dose/g Muscle (120 minutes): 0.25 % dose/g
- % dose/g Pancreas (120 minutes): 0.23 % dose/g
- % dose/g Skin (120 minutes): 0.39 % dose/g
- % dose/g Spleen (120 minutes): 0.57 % dose/g
- % dose/g Stomach (120 minutes): 0.81 % dose/g
- % dose/g Tail (120 minutes): 0.84 % dose/g
- % dose/g Testes (120 minutes): 0.31 % dose/g
- % dose/g Thyroid (120 minutes): 0.60 % dose/g
- % dose/g Urogenital (120 minutes): 30.39 % dose/g
- % dose/organ Blood (120 minutes): 0.89 % dose/organ
- % dose/organ Body leftover (120 minutes): 4.42 % dose/organ
- % dose/organ Bone (120 minutes): 2.50 % dose/organ
- % dose/organ Brain (120 minutes): 0.11 % dose/organ
- % dose/organ Fat (120 minutes): 0.03 % dose/organ
- % dose/organ Heart (120 minutes): 0.04 % dose/organ
- % dose/organ Intestine (120 minutes): 32.80 % dose/organ
- % dose/organ Kidney (120 minutes): 0.44 % dose/organ
- % dose/organ Liver (120 minutes): 1.86 % dose/organ
- % dose/organ Lung (120 minutes): 0.37 % dose/organ
- % dose/organ Muscle (120 minutes): 2.51 % dose/organ
- % dose/organ Pancreas (120 minutes): 0.03 % dose/organ
- % dose/organ Skin (120 minutes): 1.46 % dose/organ
- % dose/organ Spleen (120 minutes): 0.05 % dose/organ
- % dose/organ Stomach (120 minutes): 0.45 % dose/organ
- % dose/organ Tail (120 minutes): 0.61 % dose/organ
- % dose/organ Testes (120 minutes): 0.05 % dose/organ
- % dose/organ Thyroid (120 minutes): 0.06 % dose/organ
- % dose/organ Urogenital (120 minutes): 6.52 % dose/organ
- clearance from the brain, remaining level (before the 30 min point): less than 10 % of the peak
- de-fluorination (radioactivity in bone tissue) (first two hours): do not undergo de-fluorination
- uptake by the muscle (over the study period): under 2 % ID/g
Compound: Cc1ccc2nc3cc(N4CC([18F])C4)ccn3c2c1 [Compound 8, 3-(3-[18F]-fluoroazetidin-1-yl)-8-methylbenzo[4,5]imidazo[1,2-a]pyridine]
